Test results taken from the supplement of paper PMC9663587.

Tests used:
[1] = compound: CCN1CCN(Cc2ccc(Nc3ncc(F)c(-c4cc(F)c5nc(C)n(C(C)C)c5c4)n3)nc2)CC1; assay: increase in dead-cell fraction, 72 h; higher = more death;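 note: breast cancer cell lines in 384-well plates, stained with Hoechst plus LIVE/DEAD far red dye and imaged, cells above an LDR intensity threshold counted dead, Hoechst-negative corpses included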
[2] = compound: T1, CN1CC[C@H](c2c(O)cc(O)c3c(=O)cc(-c4ccccc4Cl)oc23)[C@H](O)C1 [Flavopiridol]; assay: as above
[3] = compound: CCN1CCN(Cc2ccc(Nc3ncc(F)c(-c4cc(F)c5nc(C)n(C(C)C)c5c4)n3)nc2)CC1; assay: GR value, 72 h; higher = faster growth (1 = untreated, <0 = killing);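 note: breast cancer and non-malignant breast epithelial lines, nine half-log doses, viable cells counted by Hoechst and LIVE/DEAD dye imaging versus time-zero plates and DMSO controls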
[4] = compound: CN(C)C(=O)c1cc2cnc(Nc3ccc(N4CCNCC4)cn3)nc2n1C1CCCC1 [LEE011/Ribociclib]; assay: as above
[5] = compound: T1, Flavopiridol; assay: as above
[6] = compound: CCc1cnn2c(NCc3ccc[n+]([O-])c3)cc(N3CCCC[C@H]3CCO)nc12; assay: as above
[7] = compound: CN(C)C/C=C/C(=O)Nc1ccc(C(=O)N2CCC[C@@H](Nc3ncc(Cl)c(-c4c[nH]c5ccccc45)n3)C2)cc1 [THZ531]; assay: as above
[8] = compound: CC(=O)c1c(C)c2cnc(Nc3ccc(N4CCN(CCOCCOCCOCCNC(=O)COc5cccc6c5C(=O)N(C5CCC(=O)NC5=O)C6=O)CC4)cn3)nc2n(C2CCCC2)c1=O [BSJ-03-123]; assay: as above
[9] = compound: CN(C)C/C=C/C(=O)Nc1ccc(C(=O)Nc2cccc(Nc3ncc(Cl)c(-c4c[nH]c5ccccc45)n3)c2)cc1 [THZ1]; assay: as above
[10] = compound: CC(=O)c1c(C)c2cnc(Nc3ccc(N4CCNCC4)cn3)nc2n(C2CCCC2)c1=O; assay: as above
[11] = compound: C=CC(=O)Nc1ccc(C(=O)Nc2[nH]nc3c2CN(C(=O)N[C@H](CN(C)C)c2ccccc2)C3(C)C)cc1 [YKL-5-124]; assay: as above
[12] = compound: CCOc1cc2ncc(C#N)c(Nc3ccc(OCc4ccccn4)c(Cl)c3)c2cc1NC(=O)/C=C/CN(C)C [Neratinib/HKI272]; assay: as above

Cell Line: HCC70
- increase in dead-cell fraction ([1]; 0.001 µM): 0.0027
- increase in dead-cell fraction ([1]; 0.003162 µM): -0.0178
- increase in dead-cell fraction ([1]; 0.01 µM): -0.0021
- increase in dead-cell fraction ([1]; 0.03162 µM): -0.0067
- increase in dead-cell fraction ([1]; 0.1 µM): -0.0175
- increase in dead-cell fraction ([1]; 0.3162 µM): -0.0179
- increase in dead-cell fraction ([1]; 1 µM): -0.0058
- increase in dead-cell fraction ([1]; 3.162 µM): 0.169
- increase in dead-cell fraction ([1]; 10 µM): 0.639
- increase in dead-cell fraction ([2]; 0.0001 µM): -0.003
- increase in dead-cell fraction ([2]; 0.0003162 µM): -0.0033
- increase in dead-cell fraction ([2]; 0.001 µM): -0.0119
- increase in dead-cell fraction ([2]; 0.003162 µM): -0.0038
- increase in dead-cell fraction ([2]; 0.01 µM): 0.0008
- increase in dead-cell fraction ([2]; 0.03162 µM): 0.009
- increase in dead-cell fraction ([2]; 0.1 µM): 0.0351
- increase in dead-cell fraction ([2]; 0.3162 µM): 0.487
- increase in dead-cell fraction ([2]; 1 µM): 0.401
- GR value ([3]; 0.001 µM): 1.06 GR
- GR value ([3]; 0.003162 µM): 1.38 GR
- GR value ([3]; 0.01 µM): 1.24 GR
- GR value ([3]; 0.03162 µM): 1.18 GR
- GR value ([3]; 0.1 µM): 1.2 GR
- GR value ([3]; 0.3162 µM): 1.06 GR
- GR value ([3]; 1 µM): 0.852 GR
- GR value ([3]; 3.162 µM): -0.0922 GR
- GR value ([3]; 10 µM): -0.82 GR
- GR value ([4]; 0.001 µM): 1.03 GR
- GR value ([4]; 0.003162 µM): 1.17 GR
- GR value ([4]; 0.01 µM): 1.01 GR
- GR value ([4]; 0.03162 µM): 1.04 GR
- GR value ([4]; 0.1 µM): 1.09 GR
- GR value ([4]; 0.3162 µM): 1.03 GR
- GR value ([4]; 1 µM): 1.06 GR
- GR value ([4]; 3.162 µM): 1.03 GR
- GR value ([4]; 10 µM): 1.05 GR
- GR value ([5]; 0.0001 µM): 1.05 GR
- GR value ([5]; 0.0003162 µM): 1.01 GR
- GR value ([5]; 0.001 µM): 1.1 GR
- GR value ([5]; 0.003162 µM): 1.16 GR
- GR value ([5]; 0.01 µM): 0.998 GR
- GR value ([5]; 0.03162 µM): 0.791 GR
- GR value ([5]; 0.1 µM): 0.371 GR
- GR value ([5]; 0.3162 µM): -0.694 GR
- GR value ([5]; 1 µM): -0.815 GR
- GR value ([6]; 0.0001 µM): 1.05 GR
- GR value ([6]; 0.0003162 µM): 0.913 GR
- GR value ([6]; 0.001 µM): 1.13 GR
- GR value ([6]; 0.003162 µM): 1.26 GR
- GR value ([6]; 0.01 µM): 0.835 GR
- GR value ([6]; 0.03162 µM): -0.865 GR
- GR value ([6]; 0.1 µM): -0.892 GR
- GR value ([6]; 0.3162 µM): -0.885 GR
- GR value ([6]; 1 µM): -0.901 GR
- GR value ([7]; 0.0001 µM): 1.09 GR
- GR value ([7]; 0.0003162 µM): 0.962 GR
- GR value ([7]; 0.001 µM): 1.15 GR
- GR value ([7]; 0.003162 µM): 1.02 GR
- GR value ([7]; 0.01 µM): 1.16 GR
- GR value ([7]; 0.03162 µM): 0.962 GR
- GR value ([7]; 0.1 µM): -0.197 GR
- GR value ([7]; 0.3162 µM): -0.793 GR
- GR value ([7]; 1 µM): -0.941 GR
- GR value ([8]; 0.001 µM): 1.1 GR
- GR value ([8]; 0.003162 µM): 0.898 GR
- GR value ([8]; 0.01 µM): 1 GR
- GR value ([8]; 0.03162 µM): 0.996 GR
- GR value ([8]; 0.1 µM): 0.911 GR
- GR value ([8]; 0.3162 µM): 0.848 GR
- GR value ([8]; 1 µM): 0.865 GR
- GR value ([8]; 3.162 µM): 0.754 GR
- GR value ([8]; 10 µM): -0.525 GR
- GR value ([9]; 0.0001 µM): 0.985 GR
- GR value ([9]; 0.0003162 µM): 1.01 GR
- GR value ([9]; 0.001 µM): 1.04 GR
- GR value ([9]; 0.003162 µM): 1.02 GR
- GR value ([9]; 0.01 µM): 0.707 GR
- GR value ([9]; 0.03162 µM): -0.291 GR
- GR value ([9]; 0.1 µM): -0.838 GR
- GR value ([9]; 0.3162 µM): -0.936 GR
- GR value ([9]; 1 µM): -0.944 GR
- GR value ([10]; 0.0003162 µM): 0.988 GR
- GR value ([10]; 0.001 µM): 1.07 GR
- GR value ([10]; 0.003162 µM): 1.08 GR
- GR value ([10]; 0.01 µM): 1.07 GR
- GR value ([10]; 0.03162 µM): 1.09 GR
- GR value ([10]; 0.1 µM): 0.961 GR
- GR value ([10]; 0.3162 µM): 1.06 GR
- GR value ([10]; 1 µM): 1.05 GR
- GR value ([10]; 3.162 µM): 0.896 GR
- GR value ([11]; 0.001 µM): -0.0339 GR
- GR value ([11]; 0.003162 µM): -0.217 GR
- GR value ([11]; 0.01 µM): -0.27 GR
- GR value ([11]; 0.03162 µM): -0.419 GR
- GR value ([11]; 0.1 µM): -0.484 GR
- GR value ([11]; 0.3162 µM): -0.506 GR
- GR value ([11]; 1 µM): -0.608 GR
- GR value ([11]; 3.162 µM): -0.727 GR
- GR value ([11]; 10 µM): -0.871 GR
- GR value ([12]; 0.0003162 µM): 1.04 GR
- GR value ([12]; 0.001 µM): 0.943 GR
- GR value ([12]; 0.003162 µM): 1.02 GR
- GR value ([12]; 0.01 µM): 0.986 GR
- GR value ([12]; 0.03162 µM): 0.79 GR
- GR value ([12]; 0.1 µM): 0.621 GR
- GR value ([12]; 0.3162 µM): 0.377 GR
- GR value ([12]; 1 µM): 0.128 GR
- GR value ([12]; 3.162 µM): 0.0733 GR
